Measured values as given in patent US20140296064A1, “PESTICIDAL METHODS USING SUBSTITUTED 3-PYRIDYL THIAZOLE COMPOUNDS AND DERIVATIVES FOR COMBATING ANIMAL PESTS I” (BASF SE, priority 2011, published 2014).

Legend:
Type in all cases: in vivo
[1] = test system: Cowpea Aphid (Aphis craccivora); experiment: Cowpea aphid potted plant spray test; details: potted cowpea plants sprayed, population reduction assessed after 24, 72 and 120 hours, read-out: mortality in comparison with untreated controls
Procedure: B.4 Cowpea Aphid (Aphis craccivora)
The active compound was dissolved at the desired concentration in a mixture of 1:1 (vol:vol) distilled water: acetone. The test solution was prepared at the day of use.
Potted cowpea plants colonized with approximately 100-150 aphids of various stages were sprayed after the pest population had been recorded. Population reduction was assessed after 24, 72, and 120 hours.

[2] = test system: Green Peach Aphid (Myzus persicae); experiment: Green peach aphid artificial diet test (systemic); details: 72 h, in aphid diet under artificial membrane, assessed after 3 days, read-out: mortality in comparison with untreated controls
From the text: B.2 Green Peach Aphid (Myzus persicae)
For evaluating control of green peach aphid (Myzus persicae) through systemic means the test unit consisted of 96-well-microtiter plates containing liquid artificial diet under an artificial membrane.
The compounds were formulated using a solution containing 75% v/v water and 25% v/v DMSO. Different concentrations of formulated compounds were pipetted into the aphid diet, using a custom built pipetter, at two replications. After application, 5-8 adult aphids were placed on the artificial membrane inside the microtiter plate wells. The aphids were then allowed to suck on the treated aphid diet and were incubated at about 23±1° C. and about 50±5% relative humidity for 3 days. Aphid mortality and fecundity was then visually assessed.

[3] = test system: Silverleaf Whitefly (bemisia argentifolii); experiment: Silverleaf whitefly cotton plant spray test; details: 72 h, cotton plants sprayed, whitefly adults, assessed 3 days after treatment, read-out: mortality in comparison with untreated controls
From the text: B.5 Silverleaf Whitefly (bemisia argentifolii)
The active compounds were formulated in cyclohexanone as a 10,000 ppm solution supplied in tubes. The tubes were inserted into an automated electrostatic sprayer equipped with an atomizing nozzle and they serve as stock solutions for which lower dilutions are made in 50% acetone: 50% water (v/v). A nonionic surfactant (Kinetic®) was included in the solution at a volume of 0.01% (v/v).
Cotton plants at the cotyledon stage (one plant per pot) were sprayed by an automated electrostatic plant sprayer equipped with an atomizing spray nozzle. The plants were dried in the sprayer fume hood and then removed from the sprayer. Each pot was placed into a plastic cup and about 10 to 12 whitefly adults (approximately 3-5 days old) were introduced. The insects were collected using an aspirator and a nontoxic Tygon® tubing connected to a barrier pipette tip. The tip, containing the collected insects, were then gently inserted into the soil containing the treated plant, allowing insects to crawl out of the tip to reach the foliage for feeding. Cups were covered with a reusable screened lid. Test plants were maintained in a growth room at about 25° C. and about 20-40% relative humidity for 3 days, avoiding direct exposure to fluorescent light (24 hour photoperiod) to prevent trapping of heat inside the cup. Mortality was assessed 3 days after treatment, compared to untreated control plants.

[4] = test system: Vetch aphid (Megoura viciae); experiment: Vetch aphid leaf disk spray test (contact or systemic); details: foliar, 120 h, sprayed broad bean leaf disks, assessed after 5 days, read-out: mortality in comparison with untreated controls
Procedure: B.1 Vetch aphid (Megoura viciae)
For evaluating control of vetch aphid (Megoura viciae) through contact or systemic means the test unit consisted of 24-well-microtiter plates containing broad bean leaf disks.
The compounds were formulated using a solution containing 75% v/v water and 25% v/v DMSO. Different concentrations of formulated compounds were sprayed onto the leaf disks at 2.5 μl, using a custom built micro atomizer, at two replications. After application, the leaf disks were air-dried and 5-8 adult aphids were placed on the leaf disks inside the microtiter plate wells. The aphids were then allowed to suck on the treated leaf disks and were incubated at about 23±1° C. and about 50±5% relative humidity for 5 days. Aphid mortality and fecundity were then visually assessed.

[5] = test system: Cotton aphid (Aphis gossypi); experiment: Cotton aphid cotyledon dip test; details: 120 h, cotton cotyledons dipped, mortality counts after 5 days, read-out: mortality in comparison with untreated controls
From the text: B.3 Cotton aphid (Aphis gossypi)
The active compounds were formulated in 50:50 (vol:vol) acetone: water and 100 ppm Kinetica™ surfactant.
Cotton plants at the cotyledon stage (one plant per pot) were infested by placing a heavily infested leaf from the main colony on top of each cotyledon. The aphids were allowed to transfer to the host plant overnight, and the leaf used to transfer the aphids was removed. The cotyledons were dipped in the test solution and allowed to dry. After 5 days, mortality counts were made.

SMILES | mortality at 500 ppm [1] | mortality at 500 ppm [2] | mortality at 500 ppm [3] | mortality at 800 ppm [4] | mortality at 500 ppm [5]
CN(C)C(=O)c1sc(-c2cccnc2)nc1C(F)(F)F [C.1, 2-Pyridin-3-yl-4-trifluoromethyl-thiazole-5-carboxylic acid dimethylamide] | ≥ 75% | ≥ 75% | ≥ 75% | – | –
CSCCNC(=O)c1sc(-c2cccnc2)nc1C(F)(F)F [C.2, 2-Pyridin-3-yl-4-trifluoromethyl-thiazole-5-carboxylic acid (2-methylsulfanyl-ethyl)amide] | ≥ 75% | ≥ 75% | – | ≥ 75% | –
CCN(CCSC)C(=O)c1sc(-c2cccnc2)nc1C(F)(F)F [C.3, 2-Pyridin-3-yl-4-trifluoromethyl-thiazole-5-carboxylic acid ethyl-(2-methylsulfanyl-ethyl)-amide] | ≥ 75% | – | – | – | ≥ 75%
CCN(CC[S+](C)[O-])C(=O)c1sc(-c2cccnc2)nc1C(F)(F)F (centres unmarked) [C.4, 2-Pyridin-3-yl-4-trifluoromethyl-thiazole-5-carboxylic acid ethyl-(2-methanesulfinyl-ethyl)-amide] | ≥ 75% | – | ≥ 75% | – | –
CCN(CCS(C)(=O)=O)C(=O)c1sc(-c2cccnc2)nc1C(F)(F)F [C.5, 2-Pyridin-3-yl-4-trifluoromethyl-thiazole-5-carboxylic acid ethyl-(2-methanesulfonyl-ethyl)-amide] | ≥ 75% | – | – | – | –
O=C(NC1CSC1)c1sc(-c2cccnc2)nc1C(F)(F)F [C.6, 2-Pyridin-3-yl-4-trifluoromethyl-thiazole-5-carboxylic acid thietan-3-ylamide] | – | – | – | ≥ 75% | –
CCN(C(=O)c1sc(-c2cccnc2)nc1C(F)(F)F)C1CSC1 [C.7, 2-Pyridin-3-yl-4-trifluoromethyl-thiazole-5-carboxylic acid ethyl-thietan-3-yl-amide] | ≥ 75% | – | ≥ 75% | – | –
CCN(C(=O)c1sc(-c2cccnc2)nc1C(F)(F)F)C1C[S+]([O-])C1 (centres unmarked) [C.8, 2-Pyridin-3-yl-4-trifluoromethyl-thiazole-5-carboxylic acid ethyl-(1-oxo-1lambda*4*-thietan-3-yl)-amide] | – | – | ≥ 75% | – | –
CN(C)C(=O)c1sc(-c2cccnc2)nc1Cl [C.11, 4-Chloro-N, N-dimethyl-2-(3-pyridyl)thiazole-5-carboxamide] | ≥ 75% | ≥ 75% | ≥ 75% | ≥ 75% | ≥ 75%
